Test results as given in patent US20160100574A1, “Antimicrobial Compositions Comprising Glyceryl Ethers” (SYMRISE AG, priority 2013, published 2016).
Blank lines part the entries; values can stand above or below the compound they belong to.

Columns and labels:
Assay type in all cases: cell-based
A. brasiliensis = test: Challenge test / synergy (Kull equation), A. brasiliensis; conditions: for colony counts Day 2: Day 2, 1% b.w. active in aqueous emulsion of Glyceryl stearyl citrate (Dracorin CE); for colony counts Day 14: Day 14, 1% b.w. active in aqueous emulsion of Glyceryl stearyl citrate (Dracorin CE); for colony counts Day 28: Day 28, 1% b.w. active in aqueous emulsion of Glyceryl stearyl citrate (Dracorin CE)
Experimental: 1% b.w. of heptylglycerin, benzylglycerin and phenylpropylglycerin, respectively was added to an aqueous emulsion of Glyceryl stearyl citrate (Dracorin CE). The formulations were tested in standard challenge tests against various micro-organisms.
To calculate the synergism between compounds of formula (I) and other antimicrobial actives, the Kull equation^1 2 was used
SI=(Cmixture×PA)/CA+(Cmixture×PB)/CB (I)
where SI is the Synergy Index according to Kull^1), 2) CA is the cell count for substance A CB is the cell count for substance B Cmixture is the cell count for the mixture of substances A and B PA is the proportion of the substance A in the mixture PB is the proportion of the substance B in the mixture. ^1 Kull, F. C., Eismann, P. C., Sylvestrowicz, H. D., and R. L. Mayer (1961). Mixtures of Quaternary Ammonium Compounds and Long-chain Fatty Acids as Antifungal Agents. Applied Microbiology 9, 538-541.^2 Steinberg, D.C. (2000). Measuring Synergy. Cosmetics & Toiletries 115 (11), 59-62.
Colony counts of <100 were arbitrarily set to 100, in order to allow for synergy calculations with the above equation. The abbreviation “n.a.” means not applicable.

C. albicans = test: Challenge test of preserved emulsion, C. albicans; conditions: for colony counts Day 14: Day 14, 1% b.w. active in aqueous emulsion of Glyceryl stearyl citrate (Dracorin CE); for colony counts Day 28: Day 28, 1% b.w. active in aqueous emulsion of Glyceryl stearyl citrate (Dracorin CE)
Experimental: (§1) 1% b.w. of heptylglycerin, benzylglycerin and phenylpropylglycerin, respectively was added to an aqueous emulsion of Glyceryl stearyl citrate (Dracorin CE). The formulations were tested in standard challenge tests against various micro-organisms. The results are shown in Table 1 and indicate the high activity of the actives against yeast and bacteria, but not against mould.

S. aureus = test: Challenge test of preserved emulsion, S. aureus; conditions: for colony counts Day 2: Day 2, 1% b.w. active in aqueous emulsion of Glyceryl stearyl citrate (Dracorin CE); for colony counts Day 7: Day 7, 1% b.w. active in aqueous emulsion of Glyceryl stearyl citrate (Dracorin CE); for colony counts Day 14: Day 14, 1% b.w. active in aqueous emulsion of Glyceryl stearyl citrate (Dracorin CE); for colony counts Day 28: Day 28, 1% b.w. active in aqueous emulsion of Glyceryl stearyl citrate (Dracorin CE)
Experimental: as §1

E. coli = test: Challenge test of preserved emulsion, E. coli; conditions: for colony counts Day 2: Day 2, 1% b.w. active in aqueous emulsion of Glyceryl stearyl citrate (Dracorin CE); for colony counts Day 7: Day 7, 1% b.w. active in aqueous emulsion of Glyceryl stearyl citrate (Dracorin CE); for colony counts Day 14: Day 14, 1% b.w. active in aqueous emulsion of Glyceryl stearyl citrate (Dracorin CE); for colony counts Day 28: Day 28, 1% b.w. active in aqueous emulsion of Glyceryl stearyl citrate (Dracorin CE)
Experimental: as §1

P. aeruginosa = test: Challenge test of preserved emulsion, P. aeruginosa; conditions: for colony counts Day 2: Day 2, 1% b.w. active in aqueous emulsion of Glyceryl stearyl citrate (Dracorin CE); for colony counts Day 7: Day 7, 1% b.w. active in aqueous emulsion of Glyceryl stearyl citrate (Dracorin CE); for colony counts Day 14: Day 14, 1% b.w. active in aqueous emulsion of Glyceryl stearyl citrate (Dracorin CE); for colony counts Day 28: Day 28, 1% b.w. active in aqueous emulsion of Glyceryl stearyl citrate (Dracorin CE)
Experimental: as §1

Pseudomonas aeruginosa = test: Minimum inhibitory concentration according to DIN 58940, Pseudomonas aeruginosa; conditions: single antimicrobial agents; for MIC: Pseudomonas aeruginosa
Description: (§2) In order to calculate the Synergy Index SI with MIC values, the Kull equation is used as follows:
(§3) SI=(MICmixture×PA)/MICA+(MICmixture×PB)/MICB (II)
(§4) where SI is the Synergy Index according to Kull^1), 2) MICA is the MIC value for substance A MICB is the MIC value for substance B MICmixture is the MIC value for the mixture of substances A and B PA is the proportion of the substance A in the mixture PB is the proportion of the substance B in the mixture. b) Mixtures containing 3 components
(§5) SI=(MICmixture×PA)/MICA+(MICmixture×PB)/MICB+(MICmixture×PC)/MICC
(§6) where SI is the Synergy Index according to Kull^1), 2) MICA is the MIC value for substance A MICB is the MIC value for substance B MICC is the MIC value for substance C MICmixture is the MIC value for the mixture of substances […] PA is the proportion of the substance A in the mixture PB is the proportion of the substance B in the mixture. PC is the proportion of the substance C in the mixture.

Escherichia coli = test: Minimum inhibitory concentration according to DIN 58940, Escherichia coli; conditions: single antimicrobial agents; for MIC: Escherichia coli, read-out: MIC values E. coli
Description: as §2, §3, §4, §5, §6

Candida albicans = test: Minimum inhibitory concentration according to DIN 58940, Candida albicans; conditions: single antimicrobial agents; for MIC: Candida albicans
Description: as §2, §3, §4, §5, §6

Staphylococcus aureus = test: Minimum inhibitory concentration according to DIN 58940, Staphylococcus aureus; conditions: single antimicrobial agents; for MIC: Staphylococcus aureus
Description: as §2, §3, §4, §5, §6

Aspergillus brasiliensis = test: Minimum inhibitory concentration according to DIN 58940, Aspergillus brasiliensis; conditions: single antimicrobial agents; for MIC: Aspergillus brasiliensis
Description: as §2, §3, §4, §5, §6

[1] = Day 0, 1% b.w. active in aqueous emulsion of Glyceryl stearyl citrate (Dracorin CE)
[2] = Table 2, day 0, 1.0% total active
[3] = Table 2, day 0, relative to day 0, 1.0% total active
[4] = Table 2, day 2, 1.0% total active
[5] = Table 2, day 2, relative to day 0, 1.0% total active
[6] = Table 2, day 7, 1.0% total active
[7] = Table 2, day 7, relative to day 0, 1.0% total active
[8] = Table 2, day 14, 1.0% total active
[9] = Table 2, day 14, relative to day 0, 1.0% total active
[10] = Table 2, day 28, 1.0% total active
[11] = Table 2, day 28, relative to day 0, <100 set to 100, 1.0% total active

Compound: OCC(O)COCCCc1ccccc1 (stereo not shown) [Phenylpropylglycerin]
colony counts Day 2 (A. brasiliensis): 500.000 cfu/g formulation | colony counts Day 14 (A. brasiliensis): 20.000 cfu/g formulation | colony counts Day 28 (A. brasiliensis): 5.900 cfu/g formulation | colony counts Day 7 (C. albicans; Day 7, 1% b.w. active in aqueous emulsion of Glyceryl stearyl citrate (Dracorin CE)): <10 cfu/g formulation | colony counts Day 14 (C. albicans): <10 cfu/g formulation | colony counts Day 28 (C. albicans): <10 cfu/g formulation | colony counts Day 2 (S. aureus): <10 cfu/g formulation | colony counts Day 7 (S. aureus): <10 cfu/g formulation | colony counts Day 14 (S. aureus): <10 cfu/g formulation | colony counts Day 28 (S. aureus): <10 cfu/g formulation | colony counts Day 2 (E. coli): <10 cfu/g formulation | colony counts Day 7 (E. coli): <10 cfu/g formulation | colony counts Day 14 (E. coli): <10 cfu/g formulation | colony counts Day 28 (E. coli): <10 cfu/g formulation | colony counts Day 2 (P. aeruginosa): <10 cfu/g formulation | colony counts Day 7 (P. aeruginosa): <10 cfu/g formulation | colony counts Day 14 (P. aeruginosa): <10 cfu/g formulation | colony counts Day 28 (P. aeruginosa): <10 cfu/g formulation

Compound: OCC(O)COCc1ccccc1 (stereo not shown) [Benzylglycerin]
colony counts Day 0 (A. brasiliensis; [1]): 360.000 cfu/g formulation | colony counts Day 2 (A. brasiliensis): 490.000 cfu/g formulation | colony counts Day 14 (A. brasiliensis): 300.000 cfu/g formulation | colony counts Day 28 (A. brasiliensis): 30.000 cfu/g formulation | MIC (Pseudomonas aeruginosa): 20000 µg/mL | MIC (Escherichia coli): 10000 µg/mL | MIC (Candida albicans): 20000 µg/mL | MIC (Staphylococcus aureus): 20000 µg/mL | colony counts Day 14 (C. albicans): 0 cfu/g formulation | colony counts Day 28 (C. albicans): 0 cfu/g formulation | colony counts Day 0 (S. aureus; [1]): 240.000 cfu/g formulation | colony counts Day 2 (S. aureus): 700 cfu/g formulation | colony counts Day 7 (S. aureus): <100 cfu/g formulation | colony counts Day 14 (S. aureus): 0 cfu/g formulation | colony counts Day 28 (S. aureus): 0 cfu/g formulation | MIC (Aspergillus brasiliensis): 20000 µg/mL | colony counts Day 0 (E. coli; [1]): 250.000 cfu/g formulation | colony counts Day 2 (E. coli): 0 cfu/g formulation | colony counts Day 7 (E. coli): 0 cfu/g formulation | colony counts Day 14 (E. coli): 0 cfu/g formulation | colony counts Day 28 (E. coli): 0 cfu/g formulation | colony counts Day 0 (P. aeruginosa; [1]): 210.000 cfu/g formulation | colony counts Day 2 (P. aeruginosa): 0 cfu/g formulation | colony counts Day 7 (P. aeruginosa): 0 cfu/g formulation | colony counts Day 14 (P. aeruginosa): 0 cfu/g formulation | colony counts Day 28 (P. aeruginosa): 0 cfu/g formulation

Compound: CCCCC(CC)COCC(O)CO (stereo not shown) [Ethylhexylglycerin]
Colony counts day 0 (A. brasiliensis; [2]): 315.000 cfu/g formulation | Relative colony counts day 0 (A. brasiliensis; [3]): 1.0000 | Colony counts day 2 (A. brasiliensis; [4]): 159.000 cfu/g formulation | Relative colony counts day 2 (A. brasiliensis; [5]): 0.5048 | Colony counts day 7 (A. brasiliensis; [6]): 150.000 cfu/g formulation | Relative colony counts day 7 (A. brasiliensis; [7]): 0.4762 | Colony counts day 14 (A. brasiliensis; [8]): 304.000 cfu/g formulation | Relative colony counts day 14 (A. brasiliensis; [9]): 0.9635 | Colony counts day 28 (A. brasiliensis; [10]): 304.000 cfu/g formulation | Relative colony counts day 28 (A. brasiliensis; [11]): 0.9635 | MIC values Pseudomonas aeruginosa (Pseudomonas aeruginosa): >20000 ppm | MIC values E. coli (Escherichia coli): 2500 ppm | MIC values Candida albicans (Candida albicans): 2000 ppm | MIC values Staphylococcus aureus (Staphylococcus aureus): 2000 ppm | MIC values Aspergillus brasiliensis (Aspergillus brasiliensis): 2000 ppm

Compound: CC(=O)c1ccc(O)cc1 [4HAP, 4-hydroxyacetophenone]
Colony counts day 0 (A. brasiliensis; [2]): 300.000 cfu/g formulation | Relative colony counts day 0 (A. brasiliensis; [3]): 1.0000 | Colony counts day 2 (A. brasiliensis; [4]): 56.000 cfu/g formulation | Relative colony counts day 2 (A. brasiliensis; [5]): 0.1867 | Colony counts day 7 (A. brasiliensis; [6]): 1.900 cfu/g formulation | Relative colony counts day 7 (A. brasiliensis; [7]): 0.0063 | Colony counts day 14 (A. brasiliensis; [8]): 1.900 cfu/g formulation | Relative colony counts day 14 (A. brasiliensis; [9]): 0.0063 | Colony counts day 28 (A. brasiliensis; [10]): <100 cfu/g formulation | Relative colony counts day 28 (A. brasiliensis; [11]): 0.0003 | Colony counts day 0 (A. brasiliensis; Table 3, day 0, 1.0% total active): 300.000 cfu/g formulation | Relative colony counts day 0 (A. brasiliensis; Table 3, day 0, relative to day 0, 1.0% total active): 1.0000 | Colony counts day 2 (A. brasiliensis; Table 3, day 2, 1.0% total active): 56.000 cfu/g formulation | Relative colony counts day 2 (A. brasiliensis; Table 3, day 2, relative to day 0, 1.0% total active): 0.1867 | Colony counts day 7 (A. brasiliensis; Table 3, day 7, 1.0% total active): 1.900 cfu/g formulation | Relative colony counts day 7 (A. brasiliensis; Table 3, day 7, relative to day 0, 1.0% total active): 0.0063 | Colony counts day 14 (A. brasiliensis; Table 3, day 14, 1.0% total active): 1.900 cfu/g formulation | Relative colony counts day 14 (A. brasiliensis; Table 3, day 14, relative to day 0, 1.0% total active): 0.0063 | Colony counts day 28 (A. brasiliensis; Table 3, day 28, 1.0% total active): <100 cfu/g formulation | Relative colony counts day 28 (A. brasiliensis; Table 3, day 28, relative to day 0, <100 set to 100, 1.0% total active): 0.0003 | MIC values Pseudomonas aeruginosa (Pseudomonas aeruginosa): 4000 ppm | MIC values E. coli (Escherichia coli): 4000 ppm | MIC values Candida albicans (Candida albicans): 6000 ppm | MIC values Staphylococcus aureus (Staphylococcus aureus): 6000 ppm | MIC values Aspergillus brasiliensis (Aspergillus brasiliensis): 4000 ppm

Now from value to compound:

MIC (Pseudomonas aeruginosa): > 2000 µg/mL | MIC (Escherichia coli): 1000 µg/mL | MIC (Candida albicans): 1000 µg/mL | MIC (Staphylococcus aureus): 1000 µg/mL | MIC (Aspergillus brasiliensis): 500 µg/mL
Compound: CCCCCCCCOCC(O)CO (stereo not shown) [Octylglycerin]

MIC (Pseudomonas aeruginosa): 6000 µg/mL | MIC (Escherichia coli): 4000 µg/mL | MIC (Candida albicans): 6000 µg/mL | MIC (Staphylococcus aureus): 6000 µg/mL | MIC (Aspergillus brasiliensis): 4000 µg/mL
Compound: CCCCCCOCC(O)CO (stereo not shown) [Hexylglycerin]
